Legend:
Assay in all cases: relative viability (nuclei count vs DMSO), 5 days (fraction); higher = more cells survive
[1] = compound: C=C(c1ccc(C(=O)O)cc1)c1cc2c(cc1C)C(C)(C)CCC2(C)C [Bexarotene] + Nc1ncn([C@H]2C[C@H](O)[C@@H](CO)O2)c(=O)n1 [Decitabine] (partner 2 µM)
Summary of the method: (§1)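 Values are medians from duplicate plates. Each reflects relative viability, defined as the nuclei count of treated wells over that of vehicle wells. Lung cancer cell lines in 1536-well plates were pin-tool dosed one day after seeding with one drug alone or with a fixed anchor-drug dose plus five library-drug doses (not always all listed) in √10 steps, then fixed, stained and imaged at 4× after 5 days.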

[2] = compound: C=C(c1ccc(C(=O)O)cc1)c1cc2c(cc1C)C(C)(C)CCC2(C)C [Bexarotene] + CS(=O)(=O)CCNCc1ccc(-c2ccc3ncnc(Nc4ccc(OCc5cccc(F)c5)c(Cl)c4)c3c2)o1 [Lapatinib] (partner 2 µM)
Summary of the method: as §1

[3] = compound: C=C(c1ccc(C(=O)O)cc1)c1cc2c(cc1C)C(C)(C)CCC2(C)C [Bexarotene] + Cc1cc(Nc2cc(N3CCN(C)CC3)nc(Sc3ccc(NC(=O)C4CC4)cc3)n2)n[nH]1 [Tozasertib] (partner 0.1 µM)
Summary of the method: as §1

[4] = compound: C=C(c1ccc(C(=O)O)cc1)c1cc2c(cc1C)C(C)(C)CCC2(C)C [Bexarotene] + C[C@@H](Oc1cc(-c2cnn(C3CCNCC3)c2)cnc1N)c1c(Cl)ccc(F)c1Cl [Crizotinib] (partner 1 µM)
Summary of the method: as §1

| Cell Line | relative viability ([1]; first compound 0.08 µM) | relative viability ([1]; first compound 0.253 µM) | relative viability ([1]; first compound 0.8 µM) | relative viability ([1]; first compound 2.53 µM) | relative viability ([1]; first compound 8 µM) | relative viability ([2]; first compound 0.08 µM) | relative viability ([2]; first compound 0.253 µM) | relative viability ([2]; first compound 0.8 µM) | relative viability ([2]; first compound 2.53 µM) | relative viability ([2]; first compound 8 µM) | relative viability ([3]; first compound 0.08 µM) | relative viability ([3]; first compound 0.253 µM) | relative viability ([3]; first compound 0.8 µM) | relative viability ([3]; first compound 2.53 µM) | relative viability ([3]; first compound 8 µM) | relative viability ([4]; first compound 0.08 µM) | relative viability ([4]; first compound 0.253 µM) | relative viability ([4]; first compound 0.8 µM) | relative viability ([4]; first compound 2.53 µM) | relative viability ([4]; first compound 8 µM) |
| --- | --- | --- | --- | --- | --- | --- | --- | --- | --- | --- | --- | --- | --- | --- | --- | --- | --- | --- | --- | --- |
| PC-3 [JPC-3] | 0.874 | 0.865 | 0.88 | 0.745 | 0.781 | 0.519 | 0.48 | 0.427 | 0.466 | 0.446 | 0.905 | 0.889 | 0.758 | 0.862 | 0.755 | 1.02 | 1.02 | 0.904 | 0.965 | 0.857 |
| PC-14 | 0.288 | 0.251 | 0.251 | 0.206 | 0.209 | 0.347 | 0.401 | 0.365 | 0.327 | 0.337 | 0.626 | 0.778 | 0.649 | 0.576 | 0.66 | 0.912 | 1.04 | 1.04 | 0.946 | 0.841 |
| RERF-LC-KJ | 0.692 | 0.656 | 0.682 | 0.7 | 0.739 | 0.798 | 0.799 | 0.702 | 0.767 | 0.757 | 0.459 | 0.585 | 0.415 | 0.467 | 0.542 | 0.773 | 0.791 | 0.76 | 0.777 | 0.752 |
| SK-LU-1 | 0.668 | 0.676 |  | 0.588 | 0.599 | 0.938 | 0.955 |  | 1 | 0.692 | 0.284 | 0.346 |  | 0.358 | 0.321 | 0.926 | 1.06 |  | 0.896 | 0.717 |
| SK-MES-1 | 0.43 | 0.379 | 0.423 | 0.294 | 0.3 | 0.512 | 0.45 | 0.565 | 0.558 | 0.509 | 0.907 | 0.95 | 0.784 | 0.832 | 0.573 | 0.995 | 1.06 | 1.01 | 1.04 | 0.925 |
| SW 1573 | 0.505 | 0.43 | 0.482 | 0.452 | 0.363 | 1.09 | 1 | 1.1 | 0.919 | 0.916 | 0.219 | 0.171 | 0.251 | 0.162 | 0.224 | 0.764 | 0.82 | 0.688 | 0.684 | 0.552 |
| UMC-11 | 0.605 | 0.589 | 0.604 | 0.634 | 0.539 | 0.943 | 0.907 | 0.894 | 0.803 | 0.916 | 0.224 | 0.202 | 0.202 | 0.21 | 0.221 | 0.546 | 0.684 | 0.537 | 0.572 | 0.587 |
